Assay results published in US20240042046A1, “METHODS AND COMPOUNDS FOR MODULATING HUNTINGTON'S DISEASE” (Design Therapeutics, Inc., priority 2022, published 2024).

How the values were obtained:
Assay type in all cases: cell-based
[1] = system: human HTT mRNA, SNP rs362331 C allele, GM09197 fibroblasts; assay: Screening of HD molecules in GM09197 fibroblasts, allele-specific HTT mRNA by RT-PCR, C allele; conditions: for GM 09197 E min 48 Hr C Allele (%): Emin = lowest % HTT observed within compound concentration 0.5 nM to 1000 nM
Method: (§1) Molecular Biology Toolkit: • qPCR primer probe sets: • RNA input normalization was assessed utilizing human glyceraldehyde 3-phosphate dehydrogenase (hGAPDH) TaqMan assay (ThermoFisher cat #4351370) or Human Cyclophillin ([…]) TaqMan assay (ThermoFisher cat #4351372) • Total HTT detection was assessed utilizing human Htt TaqMan assay (ThermoFisher cat #4331182) • Allele-specific detection of human HTT expression in HD cells containing the SNP rs362331C/T (Exon 50): for each assay, allele-specific probes to detect the SNP variant contained locked nucleic acid bases to improve allele discrimination, as compared to unmodified DNA probes.
(§2) • qPCR was performed using Agpath ID one-step reverse transcriptase polymerase chain reaction (RT-PCR) reagent
(§3) Screening of HD molecules methods: GM09197 and/or GM04022 fibroblasts were cultured in T175 flasks incubated at 37° C. and 5% CO2. Once confluency was reached, the media was removed, the cells were washed with 1×PBS, and cells were dissociated using TrypLE™ Express Enzyme. Media was added to the enzyme and collected into a 15-mL conical tube and centrifuged at 500×g for 5 minutes to pellet the cells. Media and enzyme were aspirated using a serological pipette. Cells were resuspended in fresh media and counted using a Countess 3 Automated Cell Counter. Cells were plated at a density of 15,000 cells/well in a tissue culture-treated polystyrene 96-well dish and incubated at 37° C. and 5% CO2 overnight. The next day, media was removed using an 8-channel aspirator. 200 μL media/well are added back into the plate. The molecules are formulated to 1 mM and are dispensed using a Multidrop™ Pico 8 Digital Dispenser. After a 48-hour incubation with compounds, media was removed from plates, cells were washed with 1×PBS, and cells were lysed in 40 μL per well guanidinium thiocyanate buffer. RNA was isolated and purified in […] glass fiber column plates using chaotropic salts. Human mtHTT, wtHTT, and GAPDH mRNA were measured via RT-PCR using the ThermoFisher QuantStudio™ 7 Flex System in 384-well format. Results of HTT levels were normalized to GAPDH mRNA levels. Normalized HTT mRNA levels were expressed relative to vehicle-treated samples to assess fold change after molecule treatment.
(§4) Emin for each compound is the lowest % HTT concentration observed within a compound concentration of 0.5 nM to 1000 nM.

[2] = system: human HTT mRNA, SNP rs362331 C allele, GM04022 fibroblasts; assay: Screening of HD molecules in GM04022 fibroblasts, allele-specific HTT mRNA by RT-PCR, C allele; conditions: Emin = lowest % HTT observed within compound concentration 0.5 nM to 1000 nM
Method: as §1, §2
as §3, with “Results of HTT levels were normalized to GAPDH mRNA levels. Normalized HTT mRNA levels were expressed relative to vehicle-treated samples to assess fold change after molecule treatment.” left out

[3] = system: human HTT mRNA, SNP rs362331 T allele, GM04022 fibroblasts; assay: Screening of HD molecules in GM04022 fibroblasts, allele-specific HTT mRNA by RT-PCR, T allele; conditions: for GM04022 Emin 48 hr T Allele: Emin = lowest % HTT observed within compound concentration 0.5 nM to 1000 nM; for IC50: Homo sapiens, Fibroblast, 48-hour incubation, T allele HTT mRNA normalized to GAPDH, relative to vehicle
Method: as §1, §2, §3, §4

[4] = system: human HTT mRNA, SNP rs362331 T allele, GM09197 fibroblasts; assay: Screening of HD molecules in GM09197 fibroblasts, allele-specific HTT mRNA by RT-PCR, T allele; conditions: for Gm09197 Emin 48 hr T Allele (%): Emin = lowest % HTT observed within compound concentration 0.5 nM to 1000 nM; for IC50: Homo sapiens, Fibroblast, 48-hour incubation, T allele HTT mRNA normalized to GAPDH, relative to vehicle
Method: as §1, §2, §3, §4

SMILES	GM 09197 E min 48 Hr C Allele (%) [1]	GM 04022Emin 48 hr C Allele [2]	GM04022 Emin 48 hr T Allele [3]	IC50 [3] [nM]	Gm09197 Emin 48 hr T Allele (%) [4]	IC50 [4] [nM]	IC50 ([1]; Homo sapiens, Fibroblast, 48-hour incubation, C allele HTT mRNA normalized to GAPDH, relative to vehicle) [nM]
CCNC(=O)c1cc2c(-c3cc(S(C)(=O)=O)ccc3Oc3ccc(OCCOCCOCCOCCOCCOCCOCCOCCOCCNC(=O)CCNC(=O)c4nc(NC(=O)c5cc(NC(=O)CCNC(=O)c6nc(NC(=O)CCCNC(=O)c7cc(NC(=O)c8nc(NC(=O)CCNC(=O)c9cc(NC(=O)c%10nccn%10C)cn9C)cn8C)cn7C)cn6C)cn5C)cn4C)cc3F)cn(C)c(=O)c2[nH]1 [Compound A-3]	A (A>90%)	A (A>90%)	C (C<80%)	36	C (C<80%)	38.7	
CCS(=O)(=O)Nc1ccc(Oc2ccc(F)cc2F)c(-c2cn(C)c(=O)c3[nH]c(C(=O)Nc4ccc(OCCOCCOCCOCCOCCOCCOCCOCCOCCNC(=O)CCNC(=O)c5nc(NC(=O)c6cc(NC(=O)CCNC(=O)c7nc(NC(=O)CCCNC(=O)c8cc(NC(=O)c9nc(NC(=O)CCNC(=O)c%10cc(NC(=O)c%11nccn%11C)cn%10C)cn9C)cn8C)cn7C)cn6C)cn5C)cc4)cc23)c1 [Compound A-5]	A (A>90%)	A (A>90%)	C (C<80%)	2	C (C<80%)	9.8	
Cc1sc2c(c1C)C(c1ccc(Cl)cc1)=N[C@@H](CC(=O)Nc1ccc(OCCOCCOCCOCCOCCOCCOCCOCCOCCOCCOCCOCCOCCOCCOCCOCCNC(=O)CCNC(=O)c3nc(NC(=O)c4cc(NC(=O)CCNC(=O)c5nc(NC(=O)OCCNC(=O)c6cc(NC(=O)c7nc(NC(=O)CCNC(=O)c8cc(NC(=O)c9nccn9C)cn8C)cn7C)cn6C)cn5C)cn4C)cn3C)cc1)c1nnc(C)n1-2 [Compound A-73]	A (A>90%)				A (A>90%)		
Cc1sc2c(c1C)C(c1ccc(Cl)cc1)=N[C@@H](CC(=O)Nc1ccc(OCCOCCOCCOCCOCCOCCOCCOCCOCCNC(=O)c3cc(NC(=O)c4nc(NC(=O)[C@H](N)CCNC(=O)c5cc(NC(=O)c6nc(NC(=O)CCNC(=O)c7cc(NC(=O)c8nccn8C)cn7C)cn6C)cn5C)cn4C)cn3C)cc1)c1nnc(C)n1-2 [Compound A-35]	A (A>90%)				B (B is 90% to 80%)		
Cc1noc(C)c1-c1ccc2c(c1)nc(CCc1ccc(OCCOCCOCCOCCOCCOCCOCCOCCOCCNC(=O)CCNC(=O)c3nc(NC(=O)c4cc(NC(=O)CCNC(=O)c5nc(NC(=O)CCCNC(=O)c6cc(NC(=O)c7nc(NC(=O)CCNC(=O)c8cc(NC(=O)c9nccn9C)cn8C)cn7C)cn6C)cn5C)cn4C)cn3C)c(Cl)c1)n2C[C@H](C)N1CCOCC1 [Compound A-53]	A (A>90%)				B (B is 90% to 80%)		
Cc1noc(C)c1-c1ccc2c(c1)nc(CCc1ccc(OCCOCCOCCOCCOCCOCCOCCOCCOCCOCCOCCOCCOCCOCCOCCOCCNC(=O)CCNC(=O)c3nc(NC(=O)c4cc(NC(=O)CCNC(=O)c5nc(NC(=O)CCCNC(=O)c6cc(NC(=O)c7nc(NC(=O)CCNC(=O)c8cc(NC(=O)c9nccn9C)cn8C)cn7C)cn6C)cn5C)cn4C)cn3C)c(Cl)c1)n2C[C@H](C)N1CCOCC1 [Compound A-54]	B (B is 90% to 80%)				B (B is 90% to 80%)		
Cc1sc2c(c1C)C(c1ccc(Cl)cc1)=N[C@@H](CC(=O)Nc1ccc(OCCOCCOCCOCCOCCOCCOCCOCCOCCOCCOCCOCCOCCOCCOCCOCCNC(=O)CCNC(=O)c3nc(NC(=O)c4cc(NC(=O)CCNC(=O)c5nc(NC(=O)NCCNC(=O)c6cc(NC(=O)c7nc(NC(=O)CCNC(=O)c8cc(NC(=O)c9nccn9C)cn8C)cn7C)cn6C)cn5C)cn4C)cn3C)cc1)c1nnc(C)n1-2 [Compound A-75]	A (A>90%)				A (A>90%)		
Cc1sc2c(c1C)C(c1ccc(Cl)cc1)=N[C@@H](CC(=O)Nc1ccc(OCCOCCOCCOCCOCCOCCOCCOCCOCCNC(=O)CCNC(=O)c3nc(NC(=O)c4cc(NC(=O)CCNC(=O)c5nc(NC(=O)CCCNC(=O)c6cc(NC(=O)c7nc(NC(=O)CCNC(=O)c8cc(NC(=O)c9nccn9C)cn8C)cn7C)cn6C)cn5C)cn4C)cn3C)cc1)c1nnc(C)n1-2 [Compound A-1]	A (A>90%)				C (C<80%)	114	
CCS(=O)(=O)Nc1ccc(Oc2ccc(F)cc2F)c(-c2cn(C)c(=O)c3[nH]c(C(=O)Nc4ccc(OCCOCCOCCOCCOCCOCCOCCOCCOCCOCCOCCOCCOCCOCCOCCOCCNC(=O)c5cc(NC(=O)c6nc(NC(=O)c7cc(NC(=O)[C@@H](N)CCNC(=O)c8nc(NC(=O)CCNC(=O)c9cc(NC(=O)c%10nccn%10C)cn9C)cn8C)cn7C)cn6C)cn5C)cc4)cc23)c1 [Compound A-40]	A (A>90%)				A (A>90%)		
Cc1noc(C)c1-c1ccc2c(c1)nc(CCc1ccc(OCCOCCOCCOCCOCCNC(=O)CCNC(=O)c3nc(NC(=O)c4cc(NC(=O)CCNC(=O)c5nc(NC(=O)CCCNC(=O)c6cc(NC(=O)c7nc(NC(=O)CCNC(=O)c8cc(NC(=O)c9nccn9C)cn8C)cn7C)cn6C)cn5C)cn4C)cn3C)c(Cl)c1)n2C[C@H](C)N1CCOCC1 [Compound A-52]	C (C<80%)				B (B is 90% to 80%)	> 1000	> 1000
Cc1sc2c(c1C)C(c1ccc(Cl)cc1)=N[C@@H](CC(=O)Nc1ccc(OCCOCCOCCOCCOCCOCCOCCOCCOCCOCCOCCOCCOCCOCCOCCOCCNC(=O)c3cc(NC(=O)c4nc(NC(=O)c5cc(NC(=O)[C@@H](N)CCNC(=O)c6nc(NC(=O)CCNC(=O)c7cc(NC(=O)c8nccn8C)cn7C)cn6C)cn5C)cn4C)cn3C)cc1)c1nnc(C)n1-2 [Compound A-38]	A (A>90%)				A (A>90%)		
CCS(=O)(=O)Nc1ccc(Oc2ccc(F)cc2F)c(-c2cn(C)c(=O)c3[nH]c(C(=O)Nc4ccc(OCCOCCOCCOCCOCCOCCOCCOCCOCCNC(=O)c5cc(NC(=O)c6nc(NC(=O)c7cc(NC(=O)[C@@H](N)CCNC(=O)c8nc(NC(=O)CCNC(=O)c9cc(NC(=O)c%10nccn%10C)cn9C)cn8C)cn7C)cn6C)cn5C)cc4)cc23)c1 [Compound A-39]	B (B is 90% to 80%)				B (B is 90% to 80%)		
Cc1cc(F)cc(C)c1Oc1ccc(C(C)(C)O)cc1-c1cn(C)c(=O)c2[nH]c(C(=O)Nc3ccc(OCCOCCOCCOCCOCCOCCOCCOCCOCCNC(=O)CCNC(=O)c4nc(NC(=O)c5cc(NC(=O)CCNC(=O)c6nc(NC(=O)CCCNC(=O)c7cc(NC(=O)c8nc(NC(=O)CCNC(=O)c9cc(NC(=O)c%10nccn%10C)cn9C)cn8C)cn7C)cn6C)cn5C)cn4C)cc3)cc12 [Compound A-7]	A (A>90%)				A (A>90%)	> 1000	
Cn1cc(NC(=O)c2nc(NC(=O)CCNC(=O)c3cc(NC(=O)c4nccn4C)cn3C)cn2C)cc1C(=O)NCCCC(=O)Nc1cn(C)c(C(=O)NCCC(=O)Nc2cc(C(=O)Nc3cn(C)c(C(=O)NCCC(=O)NCCOCCOCCOCCOCCOCCOCCOCCOCCOCCOCCOCCOCCOCCOCCOCCOc4ccc(NC(=O)c5cc6c(-c7cc(S(C)(=O)=O)ccc7Oc7ccc(F)cc7F)cn(C)c(=O)c6[nH]5)cc4)n3)n(C)c2)n1 [Compound A-2]	A (A>90%)	A (A>90%)	C (C<80%)		C (C<80%)		
